For one test, the target named is ATM (Homo sapiens, UniProt Q13315). Conditions: concentrations of up to 100 μM; cited from earlier work.
For test [1], the system named is CD4+CD45RO− T cells from RA patients. In words: T-cell apoptosis by flow cytometry staining for PI, RA T cells. It counts as cell-based, human. Here is the method:
FIG. 5. Inhibition of DNA-PKcs activity protects RA T cells from apoptosis. CD4+CD45RO− T cells were isolated from 6 control donors and 7 RA patients. Cells were maintained in culture without stimulation for 48 h and then were treated with the DNA-PKcs inhibitor IC86621 (50 nM, 100 nM) or vehicle for 24 h. Cells were harvested and (A) T-cell apoptosis was measured by flow cytometry staining for PI. Representative cytometric data from one patient and one control are shown. (B) Frequencies of PI-positive T-cells in the absence and presence of the DNA-PKcs inhibitor from 6 controls and 7 RA patients are presented as mean±SEM.
FIG. 6. Silencing of the DNA-PKcs gene reduces apoptosis in RA T cells. CD4+CD45RO− T cells were purified from 3 control donors and 3 RA patients and transfected with control or DNA-PKcs specific siRNA oligonucleotides by nucleofection. (A, B) Twenty-four hours after transfection, DNA-PKcs transcript levels were quantified by qPCR, and DNA-PKcs protein levels were detected by Western blotting. (C) T-cell apoptosis was analyzed by staining for PI. Representative data from one patient and one control are shown. (D) Cell apoptosis from 3 control and 3 RA samples are presented as mean±SEM.
FIG. 7. […] (A) CD4+CD45RO− T cells were isolated and cultured in the presence of the indicated enzyme inhibitors for 24 h. T-cell apoptosis was quantified through flow cytometry staining for PI. (B) Cells were maintained in culture without stimulation for 48 h and then were treated with the JNK inhibitor. PI-positive T cells were measured after 24 h of treatment with the JNK inhibitor II (5 μM or 10 μM) or vehicle. Frequencies of apoptotic T cells from 6 controls and 7 RA patients are presented as mean±SEM. (C) Representative flow cytometry results from one control and one patient. (D) Flow cytometry analysis of phosphorylated JNK levels in control and RA T cells after culturing without mitogenic stimulation for 72 h. Representative data from one patient and one control are presented. (E) Expression of pJNK protein in n=6 RA and n=6 control samples at 72 h is given as MFI of FITC-pJNK. (F) Flow cytometry analysis of phosphorylated JNK levels in freshly isolated control and RA naïve CD4 T cells. Expression of pJNK protein in n=7 RA and n=7 control samples at day 0 is given as MFI of FITC-pJNK. (G) Quantification of JNK and pJNK protein expression at 72 h by Western blotting. (H) Relative expression levels of pJNK were quantified by measuring band intensities adjusted by total JNK in 6 RA patients and 6 control donors. Data are presented as mean±SEM. (I) CD4+CD45RO− T cells were purified from RA donors and transfected with control or DNA-PKcs-specific siRNA oligonucleotides by nucleofection. Twenty-four hours after transfection, DNA-PKcs and pJNK protein levels were detected by Western blotting. A representative blot from three independent experiments is shown.
Peripheral blood mononuclear cells (PBMC) were separated from whole blood with Lymphocyte Separation Medium (Mediatech Inc., Herndon, Va.). CD45RO^− cells were negatively selected with microbeads (Miltenyi Biotec Inc., Auburn, Calif.), and the naïve CD4^+CD45RO^− population was subsequently selected with CD4 microbeads (autoMACS, Miltenyi Biotec Inc.).
CD4^+CD45RO^− T cells were maintained in a resting state in DMEM without mitogenic stimulation for three days. In selected experiments, T-cell homeostatic cytokines were supplemented. To test for the role of signaling networks in mediating apoptosis, the following inhibitors were added to the cultures at day 0: DNA-PKcs inhibitor IC86621 (Sigma-Aldrich, St. Louis, Mo.), JNK inhibitor II (Calbiochem, La Jolla, Calif.), p38 inhibitor (Alexis Biochemicals, Plymouth Meeting, Pa., SB203580), CaM inhibitor (Calbiochem), NE-KB inhibitor (Calbiochem), and AKT inhibitor (Calbiochem). […]
For orientation: A flow cytometer gives signals particle by particle.

For another test, the system named is casein kinase 1. Conditions: concentrations of up to 100 μM; cited from earlier work.

SMILES strings stand for the structures.

ATM, sequence (Q13315 whole entry, species assumed): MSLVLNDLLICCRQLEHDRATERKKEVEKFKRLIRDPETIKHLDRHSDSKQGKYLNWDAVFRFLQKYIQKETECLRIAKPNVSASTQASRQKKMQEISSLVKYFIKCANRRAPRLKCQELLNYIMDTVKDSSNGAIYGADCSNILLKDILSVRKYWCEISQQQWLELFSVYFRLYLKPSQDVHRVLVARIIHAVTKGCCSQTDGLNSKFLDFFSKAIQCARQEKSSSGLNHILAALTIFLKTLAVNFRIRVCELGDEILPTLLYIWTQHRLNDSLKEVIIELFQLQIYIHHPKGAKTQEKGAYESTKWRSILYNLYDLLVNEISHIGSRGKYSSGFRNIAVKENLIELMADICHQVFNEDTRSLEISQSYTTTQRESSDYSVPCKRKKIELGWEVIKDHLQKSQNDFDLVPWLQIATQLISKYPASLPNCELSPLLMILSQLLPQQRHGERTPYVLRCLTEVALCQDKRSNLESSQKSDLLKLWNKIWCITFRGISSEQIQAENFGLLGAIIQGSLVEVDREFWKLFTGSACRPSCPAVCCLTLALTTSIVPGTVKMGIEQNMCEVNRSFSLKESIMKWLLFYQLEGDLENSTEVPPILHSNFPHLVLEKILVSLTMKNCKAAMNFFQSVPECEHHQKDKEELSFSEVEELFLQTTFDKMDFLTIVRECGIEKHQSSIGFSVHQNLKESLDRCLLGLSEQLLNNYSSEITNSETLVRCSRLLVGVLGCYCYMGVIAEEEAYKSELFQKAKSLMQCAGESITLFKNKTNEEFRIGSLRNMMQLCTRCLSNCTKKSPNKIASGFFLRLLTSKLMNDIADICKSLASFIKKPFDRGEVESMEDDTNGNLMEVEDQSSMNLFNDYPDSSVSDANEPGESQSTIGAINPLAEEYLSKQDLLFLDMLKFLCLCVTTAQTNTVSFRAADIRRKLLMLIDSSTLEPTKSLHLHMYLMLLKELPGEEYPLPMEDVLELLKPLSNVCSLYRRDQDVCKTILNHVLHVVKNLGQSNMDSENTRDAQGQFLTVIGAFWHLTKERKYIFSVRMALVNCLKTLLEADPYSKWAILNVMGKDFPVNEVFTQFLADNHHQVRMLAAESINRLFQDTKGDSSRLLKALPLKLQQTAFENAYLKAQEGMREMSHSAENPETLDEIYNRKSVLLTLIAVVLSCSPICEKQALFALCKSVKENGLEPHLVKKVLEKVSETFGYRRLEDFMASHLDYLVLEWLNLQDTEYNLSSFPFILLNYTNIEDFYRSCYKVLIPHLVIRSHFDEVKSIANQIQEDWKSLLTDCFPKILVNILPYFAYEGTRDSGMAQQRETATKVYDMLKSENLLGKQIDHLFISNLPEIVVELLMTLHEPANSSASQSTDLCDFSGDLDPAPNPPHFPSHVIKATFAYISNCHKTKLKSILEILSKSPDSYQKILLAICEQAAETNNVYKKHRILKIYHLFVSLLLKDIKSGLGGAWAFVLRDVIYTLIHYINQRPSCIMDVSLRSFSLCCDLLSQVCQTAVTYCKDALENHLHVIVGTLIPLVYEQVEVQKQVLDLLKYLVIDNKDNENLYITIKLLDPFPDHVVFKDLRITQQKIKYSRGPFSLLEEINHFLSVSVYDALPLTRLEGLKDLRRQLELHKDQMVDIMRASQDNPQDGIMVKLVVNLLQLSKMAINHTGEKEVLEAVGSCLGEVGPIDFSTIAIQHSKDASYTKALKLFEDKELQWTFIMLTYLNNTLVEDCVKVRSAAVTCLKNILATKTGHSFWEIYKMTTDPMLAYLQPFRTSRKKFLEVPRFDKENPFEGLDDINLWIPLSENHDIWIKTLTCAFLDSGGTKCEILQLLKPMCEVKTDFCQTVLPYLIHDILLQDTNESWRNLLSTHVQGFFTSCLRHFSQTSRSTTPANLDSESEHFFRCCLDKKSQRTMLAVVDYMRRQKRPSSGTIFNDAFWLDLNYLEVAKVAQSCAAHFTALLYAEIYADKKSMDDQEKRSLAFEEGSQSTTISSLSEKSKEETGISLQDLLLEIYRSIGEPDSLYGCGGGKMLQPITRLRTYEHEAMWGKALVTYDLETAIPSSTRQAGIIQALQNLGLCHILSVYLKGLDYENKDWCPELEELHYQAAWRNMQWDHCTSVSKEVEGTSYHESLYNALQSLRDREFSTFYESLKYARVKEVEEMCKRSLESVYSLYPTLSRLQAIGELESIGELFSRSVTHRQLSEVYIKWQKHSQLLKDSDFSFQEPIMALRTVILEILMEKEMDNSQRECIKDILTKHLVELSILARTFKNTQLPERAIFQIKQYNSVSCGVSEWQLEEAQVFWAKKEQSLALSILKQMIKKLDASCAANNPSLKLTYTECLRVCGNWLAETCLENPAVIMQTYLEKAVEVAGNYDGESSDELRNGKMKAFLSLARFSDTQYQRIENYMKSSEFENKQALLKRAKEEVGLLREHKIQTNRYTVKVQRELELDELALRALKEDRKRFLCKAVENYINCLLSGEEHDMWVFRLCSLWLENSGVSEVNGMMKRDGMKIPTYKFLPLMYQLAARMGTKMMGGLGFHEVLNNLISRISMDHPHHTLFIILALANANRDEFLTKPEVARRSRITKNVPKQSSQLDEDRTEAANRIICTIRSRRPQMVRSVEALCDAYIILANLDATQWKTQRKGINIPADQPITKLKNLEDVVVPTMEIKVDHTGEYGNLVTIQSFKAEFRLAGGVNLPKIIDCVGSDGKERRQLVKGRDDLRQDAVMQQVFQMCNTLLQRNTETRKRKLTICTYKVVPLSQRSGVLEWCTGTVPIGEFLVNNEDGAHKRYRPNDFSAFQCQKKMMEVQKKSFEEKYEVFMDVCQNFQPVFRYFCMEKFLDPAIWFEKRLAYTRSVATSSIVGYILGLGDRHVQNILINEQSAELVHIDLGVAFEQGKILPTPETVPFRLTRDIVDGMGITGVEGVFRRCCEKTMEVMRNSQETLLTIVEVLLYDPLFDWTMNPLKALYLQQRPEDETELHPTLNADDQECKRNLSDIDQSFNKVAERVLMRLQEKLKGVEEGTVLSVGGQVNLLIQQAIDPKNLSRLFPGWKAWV

As for `CC(=O)c1ccc(N2CCOCC2)cc1O` [IC86621, 1-(2-hydroxy-4-morpholin-4-ylphenyl)ethanone], the “activity against ATM” value on ATM is on record as “neither activity”. Besides, in test [1] (50 nM, 100 nM), the “protection of RA T cells from apoptosis, dose dependence” value was “dose-dependent”. Besides, in test [1] (RA T cells), the “doses at which T cell survival was improved” value lay within 50 to 100 nM. Besides, in test [1] (RA T cells, 48 h culture then inhibitor (50 nM, 100 nM) for 24 h, PI-positive cells), the “survival rates among RA T cells” value is reported as “improved survival rates”. Besides, the “dose sufficient to normalize apoptotic susceptibility (PI-positive cells reduced to levels of control T cells)” value in test [1] (RA T cells, 72 h ex vivo culture) is 100 nM. In the test with casein kinase 1, the “activity against casein kinase 1” value is “neither activity”.

The values above are taken from patent US9511086B2, “Method for improving immune system function by administering agents that inhibit DNA-dependent protein kinase-directed apoptosis” (The Board of Trustees of the Leland Stanford Junior …, priority 2010, dated 2016).
